# “And” between values parts separate entries of the source, which are not always exact repeats. Equal values may be shown once. Read-outs that look alike come from different tables or passages of the source.
# Experiments:
# [1] = olanzapine-treated first episode schizophrenia patients, cited from earlier work
# [2] = betahistine in a small group (n=7) of olanzapine-treated first-episode schizophrenia patients; assay type: in vivo, Human
# Source text: Similarly, betahistine was associated with a modest attenuation of weight gain in a small group (n=7) of olanzapine-treated first-episode schizophrenia patients: the betahistine group 3.86 kg versus the placebo group 5.03 kg.
# Similarly, betahistine was associated with a modest attenuation of weight gain in a small group (n=7) of olanzapine-treated first-episode schizophrenia patients: the betahistine group gained 3.86 kg versus the placebo group 5.03 kg.
# [3] = tested on: animal models of obesity; details: cited from earlier work
# [4] = in 10 weeks; cited from earlier work
# [5] = baseline to endpoint, 6 weeks
# [6] = cited from earlier work; for weight gain, mean (SD): olanzapine-treated patients, reboxetine 4 mg/day, 31 patients reboxetine, 29 placebo
structure (smiles),measurement,setting,value
CNCCc1ccccn1 [betahistine],tolerability,[1],"safe, well tolerated"
same,effect on weight gain,"[1]; small sample, open design",prevents weight gain
same,"weight gain, mean (SD)",[2],3.86 kg
same,"weight gain, mean (SD)",[2]; listed as Olanzapine+betahistine,3.86 (0.9) kg
same,food intake,[3],inhibit food intake
"Cc1cc2c(s1)Nc1ccccc1N=C2N1CCN(C)CC1 [olanzapine + placebo, olanzapine]",weight gain induced in treated patients,[4],3.5 kg
same,patients who gained at least 7% of their initial weight (clinically significant weight gain),"6 week trial, 30 vs 13 patients",46.1%
same,"weight gain during the trial, average (SD)","6 week trial, olanzapine 10 mg, betahistine 48 mg/day, reboxetine 4 mg, Example 1",5.5 (2.7) kg
same,body weight,Week 1,70.4 kg
same,"increase in body weight, Δ from baseline",Week 1,1.2 kg^
same,body weight,Week 2,71.3 kg
same,"increase in body weight, Δ from baseline",Week 2,2.3 kg
same,body weight,Week 3,72 kg
same,"increase in body weight, Δ from baseline",Week 3,3.8 kg
same,body weight,Week 4,73.4 kg
same,"increase in body weight, Δ from baseline",Week 4,4.3 kg
same,body weight,Week 5,74.2 kg
same,"increase in body weight, Δ from baseline",Week 5,5.4 kg
same,body weight,Week 6,75.4 kg
same,"increase in body weight, Δ from baseline",Week 6,5.5 kg
same,change in triglyceride level,[5],almost two-fold increase
same,"weight gain, mean (SD)",[6],4.91 (2.45) kg
CCOc1ccccc1OC(c1ccccc1)C1CNCCO1 (centres unmarked) [reboxetine],weight-attenuating effect,"[6]; low-dose 4 mg/day, schizophrenic patients treated with olanzapine",significant weight-attenuating effect
same,"weight gain, mean (SD)",[6],3.31 (2.73) kg and 3.31 kg
same,"weight gain, mean (SD)",[6]; listed as Olanzapine+reboxetine,3.31 (2.73) kg
same,tolerability,[6]; reboxetine-olanzapine treated patients,safe and well tolerated and no clinically significant side effects were found

# Reference: patent publication US20130217681A1, “METHOD AND COMPOSITION FOR WEIGHT-GAIN MANAGEMENT” (TECHNION RESEARCH AND DEVELOPMENT FOUNDATION LTD., priority 2010, published 2013)
